Reference: US8440688B2, “Compounds, formulations and methods for reducing skin wrinkles, creasing and sagging” (Galderma Laboratories Inc., priority 2007, dated 2013)

Test system: severe wrinkling on their face
Experiment: Topical application of COL-118 to facial wrinkles (Example 18)
Assay type: in vivo, human
Settings: middle-aged person, topical 0.2% COL-118
Procedure: A middle-aged person has severe wrinkling on their face. They apply 0.2% COL-118 (an α2 adrenergic receptor agonist supplied by CollaGenex Pharmaceuticals, Inc., Newtown, Pa.). Wrinkling is noticeably diminished within 5 minutes by casual observation. After about 10 minutes, nearly all the wrinkles are gone. The effect lasts at least 8 hr.

Brc1c(NC2=NCCN2)ccc2nccnc12 [COL-118]
Duration of the wrinkle-reducing effect: at least 8 hr | Time after which nearly all the wrinkles are gone: about 10 minutes | Time until wrinkling is noticeably diminished (casual observation): ≤ 5 min
